Test [1] relates to S. aureus ATCC BAA-1720 (methicillin resistant). The test can be described thus: MIC against clinically isolated strain 3. In kind it is cell-based. The following applies: Staphylococcus aureus, ATCCBAA1720. As for the experimental part: Procedure of Antimicrobial susceptibility test: The MIC value of compounds was measured in the antimicrobial susceptibility test using the broth microdilution procedure in accordance with the CLSI guidelines.^21 Cation-adjusted Mueller Hinton broth (CA-MHB) was used for all the S. aureus strains in the assay. Cells in exponential phase of growth were diluted to approximately 5×10^5 cfu/mL. Stock solutions of each compound were freshly dissolved in dimethyl sulfoxide (DMSO). Then, serial dilutions of each compound in CA-MHB medium were added into 96-well microplate. The final percentage of DMSO in the assay was 1%. Control experiments were performed with 1% DMSO instead of the compound solution. After being incubated at 37° C. for 18 h, OD600 value of cells was measured on a microplate reader and the percentage of bacterial cell inhibition with respect to controls was calculated. The MIC value was defined as the lowest compound concentration at which the growth of bacteria was inhibited by ≥90%. Three independent assays were performed for each compound.
Results: Three compounds, namely 14av_amine16, 14dv_amine16 and 14dv_amine06, were selected to be tested against nine in-house clinically isolated bacterial strains including S. aureus ATCC29247, which is an ampicillin resistant strain, S. aureus ATCC BAA-41, ATCC BAA-1717, ATCC BAA-1720, ATCC 43300 which are methicillin resistant strains and four USA300 strains, (#417, #757, #1799 and #2690), which are the predominant strain type of community-associated MRSA strains in the United States.

The subject of test [2] is MRSA ATCC 43300. The test can be described thus: Frequency of resistance (FOR) determination. In kind it is cell-based, S. aureus. The following applies: 8 folds of MIC, after 48 hours' incubation. The protocol:
Procedure: MRSA ATCC 43300 cells were grown to late-exponential phase (1×10^9 CFU/mL) and spread on agars plates containing 1% DMSO or compound 14av_amine16 at 8 folds of MIC level. The plates were incubated for 48 hours to allow resistant mutants to grow. The spontaneous FOR was calculated as the number of resistance colonies divided by the number of CFUs originally plated. The assay was performed in triplicates.

Test [3] concerns B. subtilis 168. The test can be described thus: MIC against B. subtilis 168. The test is classed as cell-based. Conditions: Bacillus subtilis.
The subject of test [4] is FtsZ GFP fusion stain of B. subtilis 168. The test can be described thus: Z-ring visualization, GFP tagged FtsZ in B. subtilis 168. The test is classed as cell-based. The following applies: 6 μM test compound, 4 hours. As for the experimental part: Procedure: A single colony of FtsZ GFP fusion stain of B. subtilis 168 was grown in 5 ml 2×TY medium with 35 mg/L chloramphenicol for 14 hours at 30° C. An overnight culture was then diluted to an OD600 of 0.01 by 2×TY medium containing the absence (DMSO) and presence of 6 μM test compounds and 40 μM of IPTG, it grew at 30° C. after 4 hours of incubation; the cells were pelleted and re-suspended in 300 μL PBS buffer containing 1% agarose. 10 μL suspensions were then placed on the microscopic slide. The morphology of bacterial cell was observed under a fluorescent and phase-contrast microscope at 40× magnification, using the software of Olympus FSX100® Bio Imaging Navigator to capture images.

Values after ≈ are worked out from the molar mass of the structure shown.

Broadly, the MIC is the lowest concentration that inhibits growth of the organism. Low readings indicate a more susceptible organism, high ones a less susceptible organism.

Take `CCC(CC)c1cc(CCN2CCCN(Cc3ccc(C(F)(F)F)cc3)CC2)nc(-c2ccncc2)n1` [Compound 14av_amine16, 1-(2-(6-(pentan-3-yl)-2-(pyridin-4-yl)pyrimidin-4-yl)ethyl)-4-(4-(trifluoromethyl)benzyl)-1,4-diazepane]: the MIC in test [1] and in test [3] was 12 µM (≈ 6.14 µg/mL) each time. In addition, the “colonies on plates treated with compound” value in test [2] is “no colony was observed”. For the same molecule, the Z-ring localization entry in test [4] is reported as “obvious mislocalization of the Z-ring”.

The record behind these values is patent US9951039B2, “Pyrimidines for treatment of bacterial infections” (The Hong Kong Polytechnic University, priority 2016, dated 2018).
